Source: patent US20250064890A1, “PROTEIN COMPOSITIONS FOR THE TREATMENT OF INFLAMMATORY DISEASES” (Unichem Laboratories Limited, priority 2021, published 2025)

What was measured:
[1] = system: 5-Fluorouracil induced OM; assay: Histopathology score of cheek pouch, 5-FU induced OM in hamsters; type: in vivo, golden Syrian hamsters; details: G3, 0.1 mg/Animal; scale 1-5
Description: (§1) To induce OM, animals were administered (except normal control) 5-Fluorouracil (5-FU) by intraperitoneal route at doses of 60 mg/kg & 40 mg/kg respectively on first two days. On Day 4, under anesthesia, with aim of enhancing OM, mechanical irritation of the oral mucosa were done using wire brush. Treatment was initiated from Day 4 to Day 12. For group 3 animals 100 μl of vehicle comprising of standard drug Dexamethasone at 0.1 mg was instilled in buccal cheek pouch. For group 4, 5 and 6 animals 100 μl of vehicle comprising of SEQ ID NO. 2 at 0.25 mg, 0.5 mg & 1 mg, respectively was instilled in buccal cheek pouch. At the end of treatment period, cheek pouch of the hamsters was exposed, Mucositis scoring was carried out and images were captured. The animals were then humanely sacrificed, cheek pouch/jugular mucosa were isolated and used for biomarker estimation and histopathological investigation by using ELISA method and Hematoxylin and Eosin (H&E) staining, respectively.
For histopathology the oral mucosa tissues were sectioned 5 μm thickness and stained with hematoxylin-eosin staining. For study histopathological the sections were analyzed by light microscopy.
The pouch/jugular mucosa were observed and scored for infiltration of inflammatory cells, vasodilatation, presence of hemorrhagic areas, edema, ulcerations, and abscesses.

[2] = system: TNF-α; assay: TNF-α in jugular mucosa (ELISA), 5-FU induced OM in hamsters; type: in vivo, golden Syrian hamsters; details: G3, 0.1 mg/Animal
Description: as §1
(§2) Further, for biomarker estimation jugular mucosa was dissected out, tissue weighed and stored in ice cold 1×PBS. 100 mg of tissue was taken and in 1 ml of 1×PBS buffer. Supernatant of homogenate was used for analysis of TNF-α and Interleukin-1β using ELISA method as per manufacturers instruction. The levels of TNF-α and Interleukin-1β are given in Table 13, FIG. 2 and Table 14, FIG. 3, respectively.

[3] = system: Interleukin-1β; assay: Interleukin-1β in jugular mucosa (ELISA), 5-FU induced OM in hamsters; type: in vivo, golden Syrian hamsters; details: G3, 0.1 mg/Animal
Description: as §1, §2

[4] = system: 5-Fluorouracil induced OM; assay: Mucositis severity score, 5-FU induced OM in hamsters; type: in vivo, golden Syrian hamsters; details: G3, 0.1 mg/Animal, after 12 days; scale 0-5
Description: as §1
Mucositis severity was scored as given below: • Cheek pouch completely healthy—0; Mild erythema—1; • Severe erythema and superficial erosion—2; Formation of ulcers in one or more places—3; Cumulative ulcer formation about 50% of cheek pouch surface area—4; Complete ulceration of the cheek pouch mucosa—5.

[5] = Body weight change in 5-FU induced OM hamsters; type: in vivo, golden Syrian hamsters; details: G3, 0.1 mg/Animal in buccal cheek pouch, Day 4 to Day 12, with respect to Day 4
Description: In-vivo experiments conducted in healthy golden Syrian hamsters wherein animals were grouped as below:
as §1
Body weight of each animal was recorded daily till the end of experiment. Percentage change in body weight of the animals was calculated by using formula with respect to Day 4.

[6] = system: oral (buccal) mucosa cells (TR146); assay: Cytoprotective effect against 5-FU induced damage (MTT); type: cell-based, human
Description: The cell viability was assessed by (MTT) assay and compared with positive control (Cells treated with Amifostine, EGCG and EGF and negative assay (untreated cells), wherein the control was the cells that underwent chemotherapy/radiotherapy.
The protective effect of the recombinant lectin on survival of TR146 cells against 5-FU induced damage was determined using following calculations:
The viability of cells was determined as: % Cell viability=(100−% Cytotoxicity); • where, the percentage cytotoxicity corresponding to each treatment was calculated as: % Cytotoxicity=[(R−X)/R]*100, wherein X=Absorbance of cells treated with 5-FU or radiation damage/TI+5-FU, R=Absorbance of Control cells (Untreated) and Percentage protection was calculated as:
{(Absorbance of TI+5-FU or radiation)−(Absorbance of 5-FU or radiation alone)/(Absorbance of Untreated)−(Absorbance of 5-FU alone)}*100

Structure (SMILES) | Histopathology score, Mean [1] | TNF-α levels, Mean [2] | TNF-α levels, % Decrease vs G2 ([2]; G2 = OM + Vehicle) | IL-1β levels, Mean [3] | IL-1β levels, % Decrease vs G2 ([3]; G2 = OM + Vehicle) | Mucositis score [4] | decrease of body weight [5] | % Protection ([6]; 0.01 μM + 5-FU (5 mM)) | % cytotoxicity ([6]; 0.01 μM + 5-FU (5 mM)) | % viability ([6]; 0.01 μM + 5-FU (5 mM)) | % Protection ([6]; 0.1 μM + 5-FU (5 mM)) | % cytotoxicity ([6]; 0.1 μM + 5-FU (5 mM)) | % viability ([6]; 0.1 μM + 5-FU (5 mM)) | % Protection ([6]; 1 μM + 5-FU (5 mM)) | % cytotoxicity ([6]; 1 μM + 5-FU (5 mM)) | % viability ([6]; 1 μM + 5-FU (5 mM)) | % Protection ([6]; 10 μM + 5-FU (5 mM)) | % cytotoxicity ([6]; 10 μM + 5-FU (5 mM)) | % viability ([6]; 10 μM + 5-FU (5 mM))
C[C@@H]1C[C@H]2[C@@H]3CCC4=CC(=O)C=C[C@]4(C)[C@@]3(F)[C@@H](O)C[C@]2(C)[C@@]1(O)C(=O)CO [Dexamethasone, reference compound] | 1.6 | 134.29 pg/mL | −8.29% | 163.96 | 5.59% | 2.00±0.3 | 6.59% |  |  |  |  |  |  |  |  |  |  |  | 
O=C(O[C@@H]1Cc2c(O)cc(O)cc2O[C@@H]1c1cc(O)c(O)c(O)c1)c1cc(O)c(O)c(O)c1 [EGCG, Epigallocatechin gallate] |  |  |  |  |  |  |  | 19.5% | 47% | 53% | 42.4% | 33.6% | 66.4% | 47.9% | 30.4% | 69.6% | 24.2% | 44.2% | 55.8%
